Here are results for nine compounds from patent publication US9464064B2, “HCV helicase inhibitors and methods of use thereof” (University of Kansas, priority 2011, dated 2016).

By EC50 is commonly meant the concentration that produces a half-maximal response. In general, IC50 refers to the midpoint of a concentration-inhibition curve.

Like-named read-outs stand apart in the source and are kept apart here.

Series [1] has as its system MBHA DNA substrate. The series can be described thus: Modified FID assay, SYBR Green I. The conditions noted are these: for DNA binding (%): SYBR Green I-FID, average (±SD) percent bound at 100 μM. The class given is binding. The method, boiled down:
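Fluorescent intercalator displacement with SYBR Green I (0.68 μM) in place of ethidium bromide and MBHA DNA at 0.32 μM. Normalized data fit to concentration-response equation; EC50 given as mean ± SD of three independent triplicate titrations.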

The target of series [2] is T1, E. coli SSB-Cy5-dT15 complex (Escherichia coli, UniProt P0AGE0).
T1 construct: purchased Promega
The series can be described thus: Escherichia coli SSB Cy5-dT15 binding assay (fluorescence polarization). The conditions noted are these: for IC50: disruption of Cy5-dT15-SSB complex, read-out: Cy5-dT15-SSB Binding IC50; for inhibition at 100 µM: read-out: SSB % Displaced @ 100 μM; for EC50: read-out: SSB EC50. The method, boiled down: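 Fluorescence polarization with 5 nM Cy5-dT15 and 20 nM E. coli SSB in 25 mM MOPS pH 7.5, 1.25 mM MgCl2, BSA, Tween 20, DTT. Screening at 1% DMSO; IC50 runs at 5% DMSO. Excitation 635 nm, parallel and perpendicular emission at 667 nm.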
A general note: Fluorescence polarisation rises when a labelled molecule tumbles more slowly, as on binding a larger partner.

Series [3] concerns Huh-7.5 cells. Description: Cell viability assay ([…]-GLO). Format: cell-based, human. The conditions noted are these: for Cell viability (% viable): 10 μM compound, triplicate, average ± SD. The method, boiled down: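 Huh-7.5 cells exposed to compound for 72 hours, washed, then lysed in a 1:1 mix of growth medium and […]-GLO reagent. After 30 minutes at 23° C., luminescence was read for 1 second as a measure of viability.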

Series [4] concerns the target T2, HCV NS3 helicase NS3h_1b(con1) (Hepatitis C virus genotype 1b, UniProt Q9WMX2).
T2 construct: truncated C-terminally His-tagged NS3 proteins lacking the N-terminal protease, called NS3h; His-tag (C); made in house
The series can be described thus: biochemical. Format: biochemical, hepatitis C virus genotype 1b(con1). The method, boiled down: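 Molecular beacon helicase assay with His-tagged recombinant NS3 and a Cy5/IBRQ-labelled partially duplex DNA substrate (25 bp) or Tye665-labelled RNA substrate (19 bp). Reactions started with 1 mM ATP. Screening read fluorescence before and 30 min after ATP (ex 643/em 670 nm). For IC50, 5% v/v DMSO was present, initial velocities came from first-order decay fits, and a Hill equation was applied.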

Setting [5] is: SYBR Green, read-out: FID (SG) EC50 (converted).
Setting [6] is: DNA-based MBHA, genotype 1b, read-out: DNA Helicase NS3h_1b IC50 (μM) ± SD.
Where [7] appears, read: MBHA, DNA unwinding, mean ± SD of three titrations, read-out: Helicase IC50.
The mark [8] stands for this setting: genotype 1b (con1), read-out: Target Potency MBHA (IC50 avg., μM) 1b (con1).
The mark [9] stands for this setting: standard HCV helicase MBHA (Table 9), read-out: DNA Unwinding IC50.

T1 sequence (P0AGE0 2-178, one chain of several): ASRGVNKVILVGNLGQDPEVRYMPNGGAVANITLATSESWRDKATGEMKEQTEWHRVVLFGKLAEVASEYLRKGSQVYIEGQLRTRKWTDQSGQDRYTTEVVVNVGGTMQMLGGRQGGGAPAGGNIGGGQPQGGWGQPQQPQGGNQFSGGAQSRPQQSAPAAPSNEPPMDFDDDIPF
T2 sequence (Q9WMX2 1192-1657): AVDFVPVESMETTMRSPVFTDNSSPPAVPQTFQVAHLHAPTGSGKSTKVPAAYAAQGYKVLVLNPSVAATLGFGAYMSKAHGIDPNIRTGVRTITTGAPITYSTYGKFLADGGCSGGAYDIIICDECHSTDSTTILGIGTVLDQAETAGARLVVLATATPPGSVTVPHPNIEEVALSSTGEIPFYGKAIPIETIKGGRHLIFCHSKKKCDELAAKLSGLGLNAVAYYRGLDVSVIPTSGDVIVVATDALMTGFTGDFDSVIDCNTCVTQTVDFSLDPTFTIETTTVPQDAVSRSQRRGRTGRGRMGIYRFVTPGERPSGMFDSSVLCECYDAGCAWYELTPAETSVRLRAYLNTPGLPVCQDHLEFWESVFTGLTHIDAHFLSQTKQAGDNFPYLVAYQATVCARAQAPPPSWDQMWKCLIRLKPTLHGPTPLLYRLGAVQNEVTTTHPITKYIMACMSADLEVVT

Regarding `Cc1ccc2nc(-c3ccc4nc(-c5ccc(NC(=O)c6cc(C(F)(F)F)ccc6F)cc5)sc4c3)sc2c1S(=O)(=O)O` [Compound 25, 2′-(4-(2-fluoro-5-(trifluoromethyl)benzamido)phenyl)-6-methyl-[2,6′-bibenzo[d]thiazole]-7-sulfonic acid], the “DNA binding (%)” value in series [1] is on record as 35 ± 26%. Moreover, in series [1] (SYBR Green), the “FID (SG) % Displaced @ 100 μM” value stood at 35 ± 26%. The EC50 was over 100 µM in series [1] (setting [5]) and 12 ± 8 µM in series [2]. Further, the IC50 in series [2] worked out at 12 ± 8 µM; in series [4] (setting [6]) it was 6 ± 1.9 µM; in series [4] (setting [7]), 6.4 ± 2 µM; in series [4] (setting [8]), 6.4 ± 2 µM; in series [4] (setting [9]), 6 ± 2 µM. Moreover, in series [2], the inhibition at 100 µM is 69%. For the same compound, the “Cell Viability (% @ 10 μM)” value in series [3] stood at 132 ± 14%. Moreover, the “Cell viability (% viable)” value in series [3] turned out to be 132 ± 14%.

For the compound `Cc1ccc2nc(-c3ccc4nc(-c5ccc(NC(=O)c6cc(F)ccc6C(F)(F)F)cc5)sc4c3)sc2c1S(=O)(=O)O` [Compound 26, 2′-(4-(5-fluoro-2-(trifluoromethyl)benzamido)phenyl)-6-methyl-[2,6′-bibenzo[d]thiazole]-7-sulfonic acid], the “DNA binding (%)” value in series [1] was 35 ± 21%. In addition, in series [1] (SYBR Green), the “FID (SG) % Displaced @ 100 μM” value was 35 ± 21%. In addition, the EC50 in series [1] (setting [5]) was over 100 µM; in series [2] it was 14 ± 2 µM. In addition, the IC50 in series [2] was 14 ± 2 µM; in series [4] (setting [7]) it was 19 ± 15 µM; in series [4] (setting [8]), 19 ± 15 µM; in series [4] (setting [9]), 19 ± 15 µM. In series [2], the inhibition at 100 µM came to 95%. Moreover, the “Cell Viability (% @ 10 μM)” value in series [3] was 118 ± 4%. The “Cell viability (% viable)” value in series [3] is recorded as 118 ± 4%.

For the compound `Cc1ccc2nc(-c3ccc4nc(-c5ccc(NC(=O)c6cc(F)cc(C(F)(F)F)c6)cc5)sc4c3)sc2c1S(=O)(=O)O` [Compound 27, 2′-(4-(3-fluoro-5-(trifluoromethyl)benzamido)phenyl)-6-methyl-[2,6′-bibenzo[d]thiazole]-7-sulfonic acid], the “DNA binding (%)” value in series [1] came to 48 ± 17%. Besides, in series [1] (SYBR Green), the “FID (SG) % Displaced @ 100 μM” value worked out at 48 ± 17%. The EC50 in series [1] (setting [5]) is over 100 µM. In series [2], the inhibition at 100 µM was 23% and the EC50 is over 100 µM. Besides, in series [3], the “Cell Viability (% @ 10 μM)” value stood at 113 ± 1% and the “Cell viability (% viable)” value turned out to be 113 ± 1%. In addition, the IC50 in series [4] (setting [7]) amounted to 28 ± 7 µM. The IC50 in series [4] (setting [8]) came to 28.4 ± 7 µM.

Take `Cc1ccc(NC(=O)Nc2ccc(-c3nc4ccc(-c5nc6ccc(C)c(S(=O)(=O)O)c6s5)cc4s3)cc2)cc1` [Compound 28, 6-methyl-2′-(4-(3-(p-tolyl)ureido)phenyl)-[2,6′-bibenzo[d]thiazole]-7-sulfonic acid]: the 50% effective concentration (EC50) in series [1] (FID, mean ± SD, read-out: DNA Binding (SYBR Green I) EC50) is 13 µM; in series [1] (setting [5]), 18 µM; in series [2], 10 µM. In addition, in series [1], the “DNA binding (%)” value was found to be 90 ± 9%. Moreover, the “FID (SG) % Displaced @ 100 μM” value in series [1] (SYBR Green) is 90 ± 9%. Also, the IC50 worked out at 10 ± 3 µM in series [2], 5.3 ± 0.9 µM in series [4] (setting [7]), 5.3 ± 0.9 µM in series [4] (setting [8]) and 5 ± 1 µM in series [4] (setting [9]). The inhibition at 100 µM in series [2] was determined as 96%. The “Cell Viability (% @ 10 μM)” value in series [3] was 93 ± 1%. Further, in series [3], the “Cell viability (% viable)” value turned out to be 93 ± 1%.

As for `COc1ccc(S(=O)(=O)Nc2ccc(-c3nc4ccc(-c5nc6ccc(C)c(S(=O)(=O)O)c6s5)cc4s3)cc2)cc1` [Compound 29, 2′-(4-(4-methoxyphenylsulfonamido)phenyl)-6-methyl-[2,6′-bibenzo[d]thiazole]-7-sulfonic acid], the “DNA binding (%)” value in series [1] stood at 69 ± 4%. Besides, the “FID (SG) % Displaced @ 100 μM” value in series [1] (SYBR Green) came out at 69 ± 4%. Moreover, the results for the EC50 in series [1] (setting [5]) and in series [2] were 42 µM and 10 µM, respectively. Moreover, the IC50 in series [2] was found to be 10 ± 2 µM; in series [4] (setting [7]) it was 24 ± 2.2 µM; in series [4] (setting [8]), 24.4 ± 2.2 µM; in series [4] (setting [9]), 24 ± 2 µM. Also, the inhibition at 100 µM in series [2] was 98%. Moreover, the “Cell Viability (% @ 10 μM)” value in series [3] was 75 ± 3%. In addition, the “Cell viability (% viable)” value in series [3] is 75 ± 3%.

For `CC(=O)Nc1ccc(-c2nc3ccc(-c4nc5ccc(C)c(S(=O)(=O)O)c5s4)cc3s2)cc1` [Compound 30, 2′-(4-acetamidophenyl)-6-methyl-[2,6′-bibenzo[d]thiazole]-7-sulfonic acid], the “DNA binding (%)” value in series [1] is recorded as 48 ± 5%. Besides, the “FID (SG) % Displaced @ 100 μM” value in series [1] (SYBR Green) was 48 ± 5%. Also, the EC50 in series [1] (setting [5]) is over 100 µM; in series [2], 17 µM. Moreover, the IC50 in series [2] is 17 ± 4 µM; in series [4] (setting [7]), over 100 µM; in series [4] (setting [8]), over 100 µM; in series [4] (setting [9]), 227 ± 107 µM. Moreover, in series [2], the inhibition at 100 µM is 89%. Besides, the “Cell Viability (% @ 10 μM)” value in series [3] is on record as 102 ± 9%. For the same compound, the “Cell viability (% viable)” value in series [3] is given as 100 ± 6%.

Regarding `Cc1ccc2nc(-c3ccc4nc(-c5ccc(NC(=O)c6ccc7ccccc7c6)cc5)sc4c3)sc2c1S(=O)(=O)O` [Compound 33, 2′-(4-(2-naphthamido)phenyl)-6-methyl-[2,6′-bibenzo[d]thiazole]-7-sulfonic acid], the “DNA binding (%)” value in series [1] was 64 ± 7%. For the same compound, the “FID (SG) % Displaced @ 100 μM” value in series [1] (SYBR Green) was 63 ± 11%. The EC50 in series [1] (setting [5]) was 25 µM; in series [2], 28 µM. The IC50 in series [2] was 28 ± 9 µM; in series [4] (setting [6]), 3 ± 0.7 µM; in series [4] (setting [7]), 2.7 ± 0.7 µM; in series [4] (setting [8]), 3.6 µM; in series [4] (setting [9]), 4 µM. Besides, the inhibition at 100 µM in series [2] was determined as 78%. Besides, the “Cell Viability (% @ 10 μM)” value in series [3] came out at 99 ± 11%.

Turning to `Cc1ccc2nc(-c3ccc4nc(-c5ccc(N(C)C(=O)c6ccc7ccccc7c6)cc5)sc4c3)sc2c1S(=O)(=O)O` [Compound 34, 6-methyl-2′-(4-(N-methyl-2-naphthamido)phenyl)-[2,6′-bibenzo[d]thiazole]-7-sulfonic acid], the “DNA binding (%)” value in series [1] worked out at 35 ± 23%. In addition, the “FID (SG) % Displaced @ 100 μM” value in series [1] (SYBR Green) was 35 ± 23%. Also, the values for the EC50 in series [1] (setting [5]) and in series [2] were over 100 µM and 9 µM, respectively. The IC50 in series [2] was found to be 9 ± 2 µM; in series [4] (setting [7]), 14 ± 0.1 µM; in series [4] (setting [8]), 14.4 ± 0.04 µM; in series [4] (setting [9]), 14 µM. In addition, the inhibition at 100 µM in series [2] amounted to 105%. Also, the “Cell Viability (% @ 10 μM)” value in series [3] is reported as 101 ± 9%.

On to `Cc1ccc2nc(-c3ccc4nc(-c5ccc(NC(=O)c6ccc7nc(-c8ccc(N)cc8)sc7c6)cc5)sc4c3)sc2c1S(=O)(=O)O` [Compound 35, 2′-(4-(2-(4-aminophenyl)benzo[d]thiazole-6-carboxamido)phenyl)-6-methyl-[2,6′-bibenzo[d]thiazole]-7-sulfonic acid], for which the “DNA binding (%)” value in series [1] worked out at 59 ± 4%. Moreover, the “FID (SG) % Displaced @ 100 μM” value in series [1] (SYBR Green) turned out to be 59 ± 4%. Further, the EC50 in series [1] (setting [5]) was 68 µM. The IC50 in series [2] amounted to 3 ± 1 µM; in series [4] (setting [6]), 6 ± 2.1 µM; in series [4] (setting [7]) it was 5.5 ± 2.1 µM; in series [4] (setting [8]), 5.5 ± 2.1 µM; in series [4] (setting [9]) it was 6 ± 2 µM. The inhibition at 100 µM in series [2] is 95%. In series [3], the “Cell Viability (% @ 10 μM)” value is 85 ± 2%. Also, the “Cell viability (% viable)” value in series [3] turned out to be 85 ± 2%.
